Measurements published in US6562756B1, “Herbicidal compositions” (Nissan Chemical Industries, Ltd., priority 1999, dated 2003).

What was measured:
Format in all cases: in vivo
[1] = test system: velvetleaf (Abutilon theophrasti); experiment: Test on herbicidal effects by soil treatment: velvetleaf; details: four weeks after application
Description: (§1) Plastic cases having a size of 30 cm (length), 30 cm (width) and 10 cm (depth) were charged with sterilized upland soil. In each plastic case, seeds of velvetleaf (Abutilon theophrasti), common lambsquarters (Chenopodium album), redroot pigweed (Amaranthus viridis) and common ragweed (Ambrosia artemisiaefolia) were seeded, and covered with soil of 0.5 cm thickness. On the day of seeding, wettable powder appropriately formulated according to the above Formulation Examples was diluted with water and then applied with a small type sprayer at a spray volume of 10 liter/are. Four weeks after the application, the fresh weight of aerial parts of each weed was determined and then compared with those of untreated weed.

[2] = test system: maize; experiment: Test on phytotoxicity to maize sown at a shallow sowing depth (soil treatment, pot test); details: for Fresh weight ratio with respect to untreated plants: maize sown at 1 cm depth, 17 days after application; for phytotoxicities to maize sown at a shallow sowing depth caused by Compound (A1), (A2), (A3) or (A4): effect of the safener: summary in words of Table 1
Description: Cylindrical pots having an inner diameter of about 11 cm and a depth of 10 cm were charged with sterilized upland soil. In each pot, three seeds of maize were separately seeded at a sowing depth of 1 cm. On the day of seeding, wettable powder appropriately formulated according to the above Formulation Examples was diluted with water and then applied with a small type sprayer at a spray volume of 10 liter/are. Seventeen days after the application, the fresh weight of aerial parts of each plant was determined and then compared with those of untreated plants.

[3] = test system: common lambsquarters (Chenopodium album); experiment: Test on herbicidal effects by soil treatment: common lambsquarters; details: four weeks after application
Description: as §1

[4] = test system: common ragweed (Ambrosia artemisiaefolia); experiment: Test on herbicidal effects by soil treatment: common ragweed; details: four weeks after application
Description: as §1

[5] = test system: weeds; experiment: Test on herbicidal effects by soil treatment: summary over the weeds; details: summary in words of Table 2
Description: as §1

[6] = test system: redroot pigweed (Amaranthus viridis); experiment: Test on herbicidal effects by soil treatment: redroot pigweed; details: four weeks after application
Description: as §1

Structure (SMILES): CCS(=O)(=O)Nc1cc(-n2c(=O)cc(C(F)(F)F)n(C)c2=O)c(F)cc1Cl [Compound (A1)]
- Fresh weight ratio with respect to untreated weeds, A.th ([1]; 5 g/ha): 26%
- Fresh weight ratio with respect to untreated weeds, A.th ([1]; 10 g/ha): 2%
- Fresh weight ratio with respect to untreated plants ([2]; 40 g/ha): 70%
- Fresh weight ratio with respect to untreated plants ([2]; 80 g/ha): 55%
- Fresh weight ratio with respect to untreated weeds, C.al ([3]; 5 g/ha): 13%
- Fresh weight ratio with respect to untreated weeds, C.al ([3]; 10 g/ha): 0%
- Fresh weight ratio with respect to untreated weeds, A.ar ([4]; 5 g/ha): 31%
- Fresh weight ratio with respect to untreated weeds, A.ar ([4]; 10 g/ha): 7%
- herbicidal activities in the presence of Compound (B), (C), (D) or (E) [5]: not decreased
- Fresh weight ratio with respect to untreated weeds, A.vi ([6]; 5 g/ha): 5%
- Fresh weight ratio with respect to untreated weeds, A.vi ([6]; 10 g/ha): 0%

Structure (SMILES): Cn1c(C(F)(F)F)cc(=O)n(-c2cc(NS(C)(=O)=O)c(C#N)cc2F)c1=O [Compound (A2)]
- Fresh weight ratio with respect to untreated weeds, A.th ([1]; 5 g/ha): 32%
- Fresh weight ratio with respect to untreated weeds, A.th ([1]; 10 g/ha): 4%
- Fresh weight ratio with respect to untreated plants ([2]; 40 g/ha): 90%
- Fresh weight ratio with respect to untreated plants ([2]; 80 g/ha): 76%
- Fresh weight ratio with respect to untreated weeds, C.al ([3]; 5 g/ha): 18%
- Fresh weight ratio with respect to untreated weeds, C.al ([3]; 10 g/ha): 0%
- Fresh weight ratio with respect to untreated weeds, A.ar ([4]; 5 g/ha): 40%
- Fresh weight ratio with respect to untreated weeds, A.ar ([4]; 10 g/ha): 10%
- herbicidal activities in the presence of Compound (B), (C), (D) or (E) [5]: not decreased
- Fresh weight ratio with respect to untreated weeds, A.vi ([6]; 5 g/ha): 9%
- Fresh weight ratio with respect to untreated weeds, A.vi ([6]; 10 g/ha): 0%

Structure (SMILES): CCS(=O)(=O)N(C(=O)C(C)(C)C)c1cc(-n2c(=O)cc(C(F)(F)F)n(C)c2=O)c(F)cc1C#N [Compound (A3)]
- Fresh weight ratio with respect to untreated weeds, A.th ([1]; 5 g/ha): 24%
- Fresh weight ratio with respect to untreated weeds, A.th ([1]; 10 g/ha): 1%
- Fresh weight ratio with respect to untreated plants ([2]; 40 g/ha): 84%
- Fresh weight ratio with respect to untreated plants ([2]; 80 g/ha): 60%
- Fresh weight ratio with respect to untreated weeds, C.al ([3]; 5 g/ha): 15%
- Fresh weight ratio with respect to untreated weeds, C.al ([3]; 10 g/ha): 0%
- Fresh weight ratio with respect to untreated weeds, A.ar ([4]; 5 g/ha): 37%
- Fresh weight ratio with respect to untreated weeds, A.ar ([4]; 10 g/ha): 11%
- herbicidal activities in the presence of Compound (B), (C), (D) or (E) [5]: not decreased
- Fresh weight ratio with respect to untreated weeds, A.vi ([6]; 5 g/ha): 6%
- Fresh weight ratio with respect to untreated weeds, A.vi ([6]; 10 g/ha): 0%

Structure (SMILES): CCS(=O)(=O)N(C(=O)c1ccc(OC)cc1)c1cc(-n2c(=O)cc(C(F)(F)F)n(C)c2=O)c(F)cc1Cl [Compound (A4)]
- Fresh weight ratio with respect to untreated weeds, A.th ([1]; 5 g/ha): 27%
- Fresh weight ratio with respect to untreated weeds, A.th ([1]; 10 g/ha): 5%
- Fresh weight ratio with respect to untreated plants ([2]; 40 g/ha): 73%
- Fresh weight ratio with respect to untreated plants ([2]; 80 g/ha): 57%
- Fresh weight ratio with respect to untreated weeds, C.al ([3]; 5 g/ha): 17%
- Fresh weight ratio with respect to untreated weeds, C.al ([3]; 10 g/ha): 0%
- Fresh weight ratio with respect to untreated weeds, A.ar ([4]; 5 g/ha): 40%
- Fresh weight ratio with respect to untreated weeds, A.ar ([4]; 10 g/ha): 14%
- herbicidal activities in the presence of Compound (B), (C), (D) or (E) [5]: not decreased
- Fresh weight ratio with respect to untreated weeds, A.vi ([6]; 5 g/ha): 9%
- Fresh weight ratio with respect to untreated weeds, A.vi ([6]; 10 g/ha): 0%

Structure (SMILES): CC1(C)OC(c2ccco2)CN1C(=O)C(Cl)Cl (stereo not shown) [Compound (B)]
- Fresh weight ratio with respect to untreated weeds, A.th ([1]; 5 g/ha): 100%
- Fresh weight ratio with respect to untreated weeds, A.th ([1]; 10 g/ha): 100%
- Fresh weight ratio with respect to untreated plants ([2]; 40 g/ha): 100%
- Fresh weight ratio with respect to untreated plants ([2]; 80 g/ha): 100%
- phytotoxicities to maize sown at a shallow sowing depth caused by Compound (A1), (A2), (A3) or (A4): effect of the safener [2]: remarkably reduced
- Fresh weight ratio with respect to untreated weeds, C.al ([3]; 5 g/ha): 100%
- Fresh weight ratio with respect to untreated weeds, C.al ([3]; 10 g/ha): 100%
- Fresh weight ratio with respect to untreated weeds, A.ar ([4]; 5 g/ha): 100%
- Fresh weight ratio with respect to untreated weeds, A.ar ([4]; 10 g/ha): 100%
- Fresh weight ratio with respect to untreated weeds, A.vi ([6]; 5 g/ha): 100%
- Fresh weight ratio with respect to untreated weeds, A.vi ([6]; 10 g/ha): 100%

Structure (SMILES): CC1(C)CN2C(=O)CCC2(C)N(C(=O)C(Cl)Cl)C1 (stereo not shown) [Compound (C)]
- Fresh weight ratio with respect to untreated weeds, A.th ([1]; 5 g/ha): 100%
- Fresh weight ratio with respect to untreated weeds, A.th ([1]; 10 g/ha): 100%
- Fresh weight ratio with respect to untreated plants ([2]; 40 g/ha): 100%
- Fresh weight ratio with respect to untreated plants ([2]; 80 g/ha): 100%
- phytotoxicities to maize sown at a shallow sowing depth caused by Compound (A1), (A2), (A3) or (A4): effect of the safener [2]: remarkably reduced
- Fresh weight ratio with respect to untreated weeds, C.al ([3]; 5 g/ha): 100%
- Fresh weight ratio with respect to untreated weeds, C.al ([3]; 10 g/ha): 100%
- Fresh weight ratio with respect to untreated weeds, A.ar ([4]; 5 g/ha): 100%
- Fresh weight ratio with respect to untreated weeds, A.ar ([4]; 10 g/ha): 100%
- Fresh weight ratio with respect to untreated weeds, A.vi ([6]; 5 g/ha): 100%
- Fresh weight ratio with respect to untreated weeds, A.vi ([6]; 10 g/ha): 100%

Structure (SMILES): O=C(C(Cl)Cl)N1CCOC12CCCCC2 [Compound (D)]
- Fresh weight ratio with respect to untreated weeds, A.th ([1]; 5 g/ha): 100%
- Fresh weight ratio with respect to untreated weeds, A.th ([1]; 10 g/ha): 100%
- Fresh weight ratio with respect to untreated plants ([2]; 40 g/ha): 100%
- Fresh weight ratio with respect to untreated plants ([2]; 80 g/ha): 100%
- phytotoxicities to maize sown at a shallow sowing depth caused by Compound (A1), (A2), (A3) or (A4): effect of the safener [2]: remarkably reduced
- Fresh weight ratio with respect to untreated weeds, C.al ([3]; 5 g/ha): 100%
- Fresh weight ratio with respect to untreated weeds, C.al ([3]; 10 g/ha): 100%
- Fresh weight ratio with respect to untreated weeds, A.ar ([4]; 5 g/ha): 100%
- Fresh weight ratio with respect to untreated weeds, A.ar ([4]; 10 g/ha): 100%
- Fresh weight ratio with respect to untreated weeds, A.vi ([6]; 5 g/ha): 100%
- Fresh weight ratio with respect to untreated weeds, A.vi ([6]; 10 g/ha): 100%

Structure (SMILES): CC1COc2ccccc2N1C(=O)C(Cl)Cl (stereo not shown) [Compound (E)]
- Fresh weight ratio with respect to untreated weeds, A.th ([1]; 5 g/ha): 100%
- Fresh weight ratio with respect to untreated weeds, A.th ([1]; 10 g/ha): 100%
- Fresh weight ratio with respect to untreated plants ([2]; 40 g/ha): 100%
- Fresh weight ratio with respect to untreated plants ([2]; 80 g/ha): 100%
- phytotoxicities to maize sown at a shallow sowing depth caused by Compound (A1), (A2), (A3) or (A4): effect of the safener [2]: remarkably reduced
- Fresh weight ratio with respect to untreated weeds, C.al ([3]; 5 g/ha): 100%
- Fresh weight ratio with respect to untreated weeds, C.al ([3]; 10 g/ha): 100%
- Fresh weight ratio with respect to untreated weeds, A.ar ([4]; 5 g/ha): 100%
- Fresh weight ratio with respect to untreated weeds, A.ar ([4]; 10 g/ha): 100%
- Fresh weight ratio with respect to untreated weeds, A.vi ([6]; 5 g/ha): 100%
- Fresh weight ratio with respect to untreated weeds, A.vi ([6]; 10 g/ha): 100%
